Reference: ChEMBL document CHEMBL4715897, “A new 1-nitro-9-aminoacridine derivative targeting yeast topoisomerase II able to overcome fluconazole-resistance” (2021)
In brackets after ≈: the same amount, converted by molar mass. Activity calls are given as the source filed them. The rule behind the calls is not given here.

Columns and labels:
Pichia kudriavzevii [1] = assay: Fungicidal activity against Candida krusei DSM 6128; assay type: functional
Candida albicans [2] = assay: Growth inhibition of Candida albicans ATCC 10231 assessed as reduction in yeast to mycelium formation by measuring reduction in hyphal growth at concentration of 0.25 MIC after 3 hrs in YPG medium by light microscopic method relative to control; assay type: functional, organism-based
Candida albicans [3] = assay: Growth inhibition of Candida albicans ATCC 10231 assessed as reduction in yeast to mycelium formation by measuring reduction in hyphal growth at concentration of 0.25 MIC after 3 hrs in G1cNAc medium by light microscopic method relative to control; assay type: functional, organism-based
Saccharomyces cerevisiae [4] = assay: Fungicidal activity against Saccharomyces cerevisiae ATCC 9763; assay type: functional
[5] = Ratio of MFC for fungicidal activity against Saccharomyces cerevisiae ATCC 9763 to MIC for antifungal activity against Saccharomyces cerevisiae ATCC 9763; assay type: functional
Candida albicans [6] = assay: Antifungal activity against fluconazole-sensitive Candida albicans F2 assessed as reduction in microbial growth; assay type: functional
Candida albicans [7] = assay: Antifungal activity against Candida albicans ATCC 10231 assessed as reduction in microbial growth; assay type: functional
Pichia kudriavzevii [8] = assay: Antifungal activity against Candida krusei ATCC 6258 assessed as reduction in microbial growth; assay type: functional
Candida albicans [9] = assay: Antifungal activity against fluconazole-sensitive Candida albicans Gu4 assessed as reduction in microbial growth; assay type: functional
Saccharomyces cerevisiae [10] = assay: Antifungal activity against Saccharomyces cerevisiae ATCC 9763 assessed as reduction in microbial growth; assay type: functional
Candida albicans [11] = assay: Growth inhibition of Candida albicans ATCC 10231 assessed as reduction in yeast to mycelium formation by measuring reduction in hyphal growth at 0.25 MIC after 3 hrs by light microscopic method relative to control; assay type: functional
Nakaseomyces glabratus [12] = assay: Fungicidal activity against Candida glabrata DSM 11226; assay type: functional
Candida albicans [13] = assay: Antibiofilm activity against Candida albicans ATCC 10231 at concentration of 0.25 MIC by XTT assay; assay type: functional, organism-based
Candida albicans [14] = assay: Antifungal activity against fluconazole-sensitive Candida albicans B3 assessed as reduction in microbial growth; assay type: functional
Nakaseomyces glabratus [15] = assay: Antifungal activity against Candida glabrata ATCC 90030 assessed as reduction in microbial growth; assay type: functional
Saccharomyces cerevisiae [16] = assay: Inhibition of Saccharomyces cerevisiae DNA topoisomerase 2 assessed as decrease in relaxation of supercoiled DNA using supercoiled pBR322 plasmid DNA at 100 to 150 uM gel electrophoresis method; settings: dose 100-150 µM
Candida albicans [17] = assay: Antifungal activity against fluconazole-resistant Candida albicans F5 assessed as reduction in microbial growth; assay type: functional
Candida albicans [18] = assay: Antifungal activity against fluconazole-resistant Candida albicans Gu5 assessed as reduction in microbial growth; assay type: functional
Candida parapsilosis [19] = assay: Antifungal activity against Candida parapsilosis ATCC 22019 assessed as reduction in microbial growth; assay type: functional; settings: Lodderomyces parapsilosis
Candida albicans [20] = assay: Antifungal activity against fluconazole-resistant Candida albicans B4 assessed as reduction in microbial growth; assay type: functional
Candida albicans [21] = assay: Antibiofilm activity against Candida albicans at 256 ug/ml relative to control; assay type: functional
Candida albicans [22] = assay: Fungicidal activity against Candida albicans ATCC 10231; assay type: functional
Candida parapsilosis [23] = assay: Fungicidal activity against Candida parapsilosis DSM 5784; assay type: functional; settings: Lodderomyces parapsilosis
Saccharomyces cerevisiae [24] = assay: Inhibition of Saccharomyces cerevisiae DNA topoisomerase 2 assessed as decrease in relaxation of supercoiled DNA using supercoiled pBR322 plasmid DNA at 1 to 200 uM gel electrophoresis method; settings: dose 1-200 µM
Candida albicans [25] = assay: Antifungal activity against Candida albicans CNCM 1180-79 assessed as reduction in microbial growth incubated for 72 hrs by photometric method; assay type: functional
Escherichia coli = assay: Antibacterial activity against Escherichia coli ATCC 10536 assessed as reduction in microbial growth incubated for 48 hrs by photometric method; assay type: functional
Staphylococcus aureus = assay: Antibacterial activity against Staphylococcus aureus ATCC 9144 assessed as reduction in microbial growth incubated for 48 hrs by photometric method; assay type: functional
Candida albicans [26] = assay: Fungicidal activity against Candida albicans ATCC 10231 assessed as bacterial killing at concentration of 0.25 to 4 MIC after 1 hrs relative to control; assay type: functional
Candida albicans [27] = assay: Fungicidal activity against Candida albicans ATCC 10231 assessed as bacterial killing at concentration of 2 MIC after 5 hrs relative to control; assay type: functional
Candida albicans [28] = assay: Fungicidal activity against Candida albicans ATCC 10231 assessed as bacterial killing at concentration of 0.25 MIC after 5 hrs relative to control; assay type: functional
Candida albicans [29] = assay: Fungicidal activity against Candida albicans ATCC 10231 assessed as bacterial killing at concentration of 4 MIC after 5 hrs relative to control; assay type: functional
Candida albicans [30] = assay: Fungicidal activity against Candida albicans ATCC 10231 assessed as bacterial killing after 5 hrs; assay type: functional, organism-based
Candida albicans [31] = assay: Fungicidal activity against Candida albicans ATCC 10231 assessed as bacterial killing at concentration of 0.5 MIC after 5 hrs relative to control; assay type: functional
Candida albicans [32] = assay: Fungicidal activity against Candida albicans ATCC 10231 assessed as bacterial killing at concentration of MIC after 5 hrs relative to control; assay type: functional
Candida albicans [33] = assay: Fungicidal activity against Candida albicans ATCC 10231 assessed as bacterial killing at concentration of 4 MIC after 1 hrs relative to control; assay type: functional
Candida albicans [34] = assay: Fungicidal activity against Candida albicans ATCC 10231 assessed as bacterial killing at concentration of 2 MIC after 1 hrs relative to control; assay type: functional
Candida = assay: Antifungal activity against Candida; assay type: functional
Trichophyton rubrum = assay: Antifungal activity against Trichophyton rubrum assessed as reduction in microbial growth after 48 hrs by microdilution method; assay type: functional

SMILES | MFC (Pichia kudriavzevii [1]) | growth inhibition (GI) (Candida albicans [2]) | growth inhibition (GI) (Candida albicans [3]) | MFC (Saccharomyces cerevisiae [4]) | Ratio [5] | MIC90 (Candida albicans [6]) | MIC90 (Candida albicans [7]) | MIC90 (Pichia kudriavzevii [8]) | MIC90 (Candida albicans [9]) | MIC90 (Saccharomyces cerevisiae [10]) | growth inhibition (GI) (Candida albicans [11]) | MFC (Nakaseomyces glabratus [12]) | Activity (Candida albicans [13]) | MIC90 (Candida albicans [14]) | MIC90 (Nakaseomyces glabratus [15]) | MIC90 (Candida albicans [17]) | MIC90 (Candida albicans [18]) | MIC90 (Candida parapsilosis [19]) | MIC90 (Candida albicans [20]) | MFC (Candida albicans [22]) | also measured
O=[N+]([O-])c1cccc2nc3ccccc3c(NCCNCCNCCNc3c4ccccc4nc4cccc([N+](=O)[O-])c34)c12 | 32 µg/mL (≈ 54.2 µM) | Active | inactive | 16 µg/mL (≈ 27.1 µM) | >=1 | > 64 µg/mL | 64 µg/mL | 32 µg/mL | > 64 µg/mL | 8 µg/mL | 100% | 32 µg/mL (≈ 54.2 µM) | Active | > 64 µg/mL | 32 µg/mL | > 64 µg/mL | > 64 µg/mL | 32 µg/mL | > 64 µg/mL |  | inhibition (Saccharomyces cerevisiae [16]): Active
CCN(CC)CCCC(C)Nc1c2ccc(Cl)cc2nc2ccc(OC)cc12 (centres undefined) [QUINACRINE] |  |  |  |  |  |  |  |  |  |  |  |  |  |  |  |  |  |  |  |  | Activity (Candida albicans [21]): 50%
NCCCC[C@H](N)C(=O)NCCCNc1c2ccccc2nc2cccc([N+](=O)[O-])c12 |  | Active | Active | 16 µg/mL (≈ 37.7 µM) | >=1 | 64 µg/mL | 8 µg/mL | 64 µg/mL | 32 µg/mL | 16 µg/mL | Active | > 128 µg/mL | Active | 16 µg/mL | 32 µg/mL | 64 µg/mL | 32 µg/mL | 32 µg/mL | 16 µg/mL | 16 µg/mL (≈ 37.7 µM) | MFC (Candida parapsilosis [23]): > 128 µg/mL; inhibition (Saccharomyces cerevisiae [24]): Active; inhibition (Saccharomyces cerevisiae [16]): Active
O=[N+]([O-])c1cccc2nc3ccccc3c(NCCO)c12 | 32 µg/mL (≈ 113 µM) | inactive | inactive | 0.25 µg/mL (≈ 0.882 µM) | >=1 | 4 µg/mL | 2 µg/mL | 8 µg/mL | 4 µg/mL | 0.25 µg/mL | inactive | 32 µg/mL (≈ 113 µM) | Active | 2 µg/mL | 16 µg/mL | > 64 µg/mL | 32 µg/mL | 32 µg/mL | > 64 µg/mL | 4 µg/mL (≈ 14.1 µM) | MIC (Candida albicans [25]): 50 µg/mL; MFC (Candida parapsilosis [23]): 64 µg/mL (≈ 226 µM); inhibition (Saccharomyces cerevisiae [24]): inactive; MIC (Escherichia coli): 50 µg/mL; MIC (Staphylococcus aureus): 50 µg/mL
Cc1ccc([N+](=O)[O-])c2c(NCCO)c3ccccc3nc12 | 16 µg/mL (≈ 53.8 µM) | inactive | inactive | 0.5 µg/mL (≈ 1.68 µM) | >=1 | 2 µg/mL | 1 µg/mL | 8 µg/mL | 4 µg/mL | 0.5 µg/mL | inactive | > 64 µg/mL | Active | 4 µg/mL | 8 µg/mL | > 64 µg/mL | 32 µg/mL | 64 µg/mL | > 64 µg/mL | 2 µg/mL (≈ 6.73 µM) | Activity (Candida albicans [26]): 10%; MIC (Candida albicans [25]): 50 µg/mL; Activity (Candida albicans [27]): 70%; Activity (Candida albicans [28]): 5%; Activity (Candida albicans [29]): 80%; Activity (Candida albicans [30]): Dose-dependent effect; Activity (Candida albicans [31]): 5%; inhibition (Saccharomyces cerevisiae [24]): inactive; MIC (Escherichia coli): 50 µg/mL; MIC (Staphylococcus aureus): 50 µg/mL; Activity (Candida albicans [32]): 60%
C[C@@H]1[C@H](O)[C@@H](C)/C=C/C=C/C=C/C=C/C=C/C=C/C=C/[C@H](O[C@@H]2O[C@H](C)[C@@H](O)[C@H](N)[C@@H]2O)C[C@@H]2O[C@](O)(C[C@@H](O)C[C@@H](O)[C@H](O)CC[C@@H](O)C[C@@H](O)CC(=O)O[C@H]1C)C[C@H](O)[C@H]2C(=O)O [AMPHOTERICIN B] | 2 µg/mL (≈ 2.16 µM) |  |  | 2 µg/mL (≈ 2.16 µM) | >=1 |  | 0.5 µg/mL | 1 µg/mL |  | 0.5 µg/mL | 100% | 2 µg/mL (≈ 2.16 µM) | Active |  | 1 µg/mL |  |  | 1 µg/mL |  | 2 µg/mL (≈ 2.16 µM) | Activity (Candida albicans [27]): 100%; Activity (Candida albicans [28]): 70%; Activity (Candida albicans [33]): 100%; MFC (Candida parapsilosis [23]): 2 µg/mL (≈ 2.16 µM); Activity (Candida albicans [32]): 100%; Activity (Candida albicans [34]): 100%
COc1cc([C@@H]2c3cc4c(cc3[C@@H](O[C@@H]3O[C@@H]5CO[C@@H](C)O[C@H]5[C@H](O)[C@H]3O)[C@H]3COC(=O)[C@H]23)OCO4)cc(OC)c1O [ETOPOSIDE] |  |  |  |  |  |  |  |  |  |  |  |  |  |  |  |  |  |  |  |  | MIC (Candida): 50 µg/mL (≈ 85 µM)
O=c1c2cc(O)c(O)c(O)c2[nH]c2cc(O)cc(O)c12 |  |  |  |  |  |  |  |  |  |  |  |  |  |  |  |  |  |  |  |  | MIC (Trichophyton rubrum): 15.6 µg/mL
